Measurements as given in patent publication US9132164B2, “Pharmaceutical compositions comprising angiotensin-(1-9), derivatives thereof, or a vector expressing ACE2, useful for treating cardiovascular, pulmonary, cerebral, and/or renal remodeling” (PONTIFICIA UNIVERSIDAD CATOLICA DE CHILE, priority 2008, dated 2015).
Marks after values point to notes of the source that are not given here.

Legend:
Format in all cases: in vivo, Sprague Dawley rats
[1] = test system: sham and infarcted rats (left coronary artery ligation); test: Effect of candesartan and enalapril on blood pressure, morphometry and function of the left ventricle after coronary artery ligation; details: for Infarct size LV / LVAWT / LVEDD / LVESD / LVFS / SBP / LLVWT / LVP content / LVW/BW / mRNA ANF / β-MHC: 10 mg/kg daily by gavage, 8 weeks, average ± SEM
Experimental: (§1) Male Sprague Dawley rats were kept in cages with access to water and food ad libitum. This procedure was performed in accordance with the Guide for the Care and Use of Laboratory Animals, published by “U.S. National Institutes of Health” (NIH publication No 85-23, revised 1985) and was approved by our Institutional Ethics Committee. For studies with enalapril and candesartan, 71 adult normotensive rats were randomly separated into two groups and underwent a sham surgery (surgery without ligation of the coronary artery, n=34) or myocardial infarction following a surgery with ligation of the left coronary artery (infarction, n=37) as previously described (Ocaranza et al, Hypertension 48:572-8, 2006). Briefly, the left coronary artery was ligated between the pulmonary artery exit and left auricle with a 7-0 silk suture under aseptic conditions in rats anaesthetized with ketamine-HCl/xilazine (35/7 mg/kg intraperitoneal, respectively). Sham rats underwent the same surgical procedure except that the suture was not passed around the left coronary artery. Myocardial infarction was confirmed by electrocardiography 24 h following surgery. Mortality rate from myocardial infarction following ligation of the left coronary artery was 25% within 48 h after occlusion. Infarct size in survivors was determined by planimetry of endocardial circumference of left ventricle on histological sections. Sham and infracted rats were randomized to receive the carrier, candesartan (10 mg/kg of body weight daily) or enalapril (10 mg/kg of body weight daily) by gavage for 8 weeks, beginning 48 h after infarction.
Systolic blood pressure (SBP) was determined by using the “tail-cuff” method by investigators who were blind to the treatment group. Left ventricle function was determined by transthoracic bidimensional echocardiography using a Sonos 5000 equipped with a 5 to 12 MHz sectorial electronic ultraband S12 Philips transducer. The following echocardiographic parameters were determined: left ventricular end-systolic diameter (LVESD), left ventricular end diastolic diameter (LVEDD), left ventricular fractional shortening (LVFS), left ventricular anterior wall thickness (LVAWT), and left ventricular posterior wall thickness (LLVWT).
The extent of left ventricular hypertrophy was calculated by the relationship among left ventricular weight (LVW), body weight (BW), mRNA relative levels of the auricular natriuretic factor (ANF), left ventricular protein content (LVP), and protein levels of β-myosinheavy chain (β-MHC) as described in (Ocaranza et al, Hypertension 48:572-8, 2006).
Left ventricular hypertrophy (LVH) was assessed by ecocardiography, relative left ventricle weight (RLVW, mg left ventricle weight (LVW)/body weight (BW)), relative levels of auricular natriuretic factor (ANF) mRNA, left ventricle protein (LVP) content, and β-myosin heavy chain (β-MHC) content are described in example 1.

[2] = Circulating angiotensin levels post coronary artery ligation (HPLC and radioimmunoassay); details: for Ang I / Ang II / Ang II/Ang I / Ang-(1 -7) / Ang-(1-7)/Ang II / Ang-(1 -9) / Ang-(1-9)/Ang I: plasma, 10 mg/kg daily, 8 weeks, average ± SEM
Experimental: as §1
(§2) Plasma angiotensin and bradykinin levels were determined as described by (Ocaranza et al, Hypertension 48:572-8, 2006; Ocaranza et al, Life Sci. 78:1535-42, 2005; Campbell et al, J. Mol. Cell. Cardiol. 27:1545-60, 1995). Briefly, rats were anesthetized with a combination of ketamin (125 mg/kg) and xilazin (12.5 mg/kg) administered via intraperitoneal injection. […] Plasmas were stored at −80° C. until their extraction using C18 Sep-Pak cartridges, and peptides were acetylated. Acetylated angiotensin II, angiotensin I, angiotensin-(1-7), angiotensin-(1-9), bradykinin-(1-7) and bradykinin-(1-9) were separated by high performance liquid chromatography (HPLC) and were detected by radioimmunoassay.
(§3) Plasma angiotensin and bradykinin (BK) levels were determined by high performance liquid chromatography and radioimmunoassay as described in example No 2. Angiotensin-I levels are lower in the infarcted rats group, associated with higher levels of angiotensin-II. However, plasma angiotensin-(1-7) and angiotensin-(1,9) levels were similar in sham rats and infarcted rats. Enalapril and candesartan increase both angiotensin-(1-9) circulating levels, and -(1-7)/angiotensin-II and angiotensin-(1-9)/angiotensin-I ratios in both experimental groups. Plasma angiotensin-(1-7) levels were increased by candesartan, and bradykinin-(1-9) levels were increased by enalapril both in infarcted rats and sham rats (Tables 3 and 4).

[3] = Circulating bradykinin levels post coronary artery ligation (HPLC and radioimmunoassay); details: for Bk-(1-7) / Bk-(1-7)/Bk-(1-9) / Bk-(1-9): plasma, 10 mg/kg daily, 8 weeks, ± SEM
Experimental: as §1, §2, §3

[4] = both experimental groups (sham and infarcted rats)

CCOc1nc2cccc(C(=O)O)c2n1Cc1ccc(-c2ccccc2-c2nnn[nH]2)cc1 [candesartan]
Infarct size LV ([1]; infarcted rats (MI)): 30 ± 1%
LVAWT ([1]; infarcted rats (MI)): 0.9 ± 0.4 mm
LVEDD ([1]; infarcted rats (MI)): 8.0 ± 0.3 mm
LVESD ([1]; infarcted rats (MI)): 5.9 ± 0.4 mm
LVFS ([1]; infarcted rats (MI)): 22 ± 2 %
SBP ([1]; infarcted rats (MI)): 88 ± 4*^#¶ mm Hg
LLVWT ([1]; sham rats): 1.1 ± 0.0 mm
LVAWT ([1]; sham rats): 1.1 ± 0.4 mm
LVEDD ([1]; sham rats): 7.7 ± 0.2 mm
LVESD ([1]; sham rats): 5.1 ± 0.1 mm
LVFS ([1]; sham rats): 30 ± 2%
LVP content ([1]; sham rats): 11.6 ± 1.1 mg
LVW/BW ([1]; sham rats): 2.7 ± 0.1 mg/g
SBP ([1]; sham rats): 84 ± 4*^#¶ mm Hg
mRNA ANF ([1]; sham rats): 0.7 ± 0.2 times
β-MHC ([1]; sham rats): 1.1 ± 0.2 times
Ang I ([2]; infarcted rats (MI)): 30.7 ± 1.9 fmol/g
Ang II ([2]; infarcted rats (MI)): 34.6 ± 4.2*^¶ fmol/g
Ang II/Ang I ([2]; infarcted rats (MI)): 4.5 ± 0.6*^#¶
Ang-(1 -7) ([2]; infarcted rats (MI)): 14.4 ± 2.7*^#¶ fmol/g
Ang-(1-7)/Ang II ([2]; infarcted rats (MI)): 1.02 ± 0.06*^#¶
Ang-(1 -9) ([2]; infarcted rats (MI)): 43.8 ± 2.9 *^#¶ fmol/g
Ang-(1-9)/Ang I ([2]; infarcted rats (MI)): 2.8 ± 1.1*^#¶
Ang I ([2]; sham rats): 22.6 ± 5.3 fmol/g
Ang II ([2]; sham rats): 38.6 ± 7.2 fmol/g
Ang II/Ang I ([2]; sham rats): 3.3 ± 0.9
Ang-(1 -7) ([2]; sham rats): 10.9 ± 1.6*^#¶ fmol/g
Ang-(1-7)/Ang II ([2]; sham rats): 0.49 ± 0.15
Ang-(1 -9) ([2]; sham rats): 36.2 ± 4.1 fmol/g
Ang-(1-9)/Ang I ([2]; sham rats): 2.6 ± 0.7
Bk-(1-7) ([3]; infarcted rats (MI)): 5.44 ± 1.60 fmol/g
Bk-(1-7)/Bk-(1-9) ([3]; infarcted rats (MI)): 1.18 ± 0.21^¶
Bk-(1-9) ([3]; infarcted rats (MI)): 4.08 ± 1.43^¶ fmol/g
Bk-(1-7) ([3]; sham rats): 4.41 ± 1.5 fmol/g
Bk-(1-7)/Bk-(1-9) ([3]; sham rats): 1.69 ± 0.51
Bk-(1-9) ([3]; sham rats): 4.30 ± 1.36 fmol/g

CCOC(=O)[C@H](CCc1ccccc1)N[C@@H](C)C(=O)N1CCC[C@H]1C(=O)O [enalapril]
Infarct size LV ([1]; infarcted rats (MI)): 31 ± 2%
LLVWT ([1]; infarcted rats (MI)): 1.5 ± 0.1 mm
LVAWT ([1]; infarcted rats (MI)): 0.9 ± 0.1 mm
LVEDD ([1]; infarcted rats (MI)): 7.1 ± 0.2 mm
LVESD ([1]; infarcted rats (MI)): 5.4 ± 0.3 mm
LVFS ([1]; infarcted rats (MI)): 21 ± 1 %
SBP ([1]; infarcted rats (MI)): 110 ± 3 mm Hg
left ventricle dilatation ([1]; infarcted rats, week 8): significantly prevented
LLVWT ([1]; sham rats): 1.4 ± 0.0 mm
LVAWT ([1]; sham rats): 1.3 ± 0.2 mm
LVEDD ([1]; sham rats): 7.5 ± 0.3 mm
LVESD ([1]; sham rats): 5.2 ± 0.1 mm
LVFS ([1]; sham rats): 30 ± 1%
LVP content ([1]; sham rats): 12.4 ± 0.8 mg
LVW/BW ([1]; sham rats): 2.7 ± 0.2 mg/g
SBP ([1]; sham rats): 113 ± 2 mm Hg
mRNA ANF ([1]; sham rats): 0.9 ± 0.1 times
β-MHC ([1]; sham rats): 1.3 ± 0.2 times
-(1-7)/angiotensin-II ratio [2, 4]: increase
angiotensin-(1-9) circulating levels [2, 4]: increase
angiotensin-(1-9)/angiotensin-I ratio [2, 4]: increase
Ang I ([2]; infarcted rats (MI)): 32.4 ± 0.8 fmol/g
Ang II ([2]; infarcted rats (MI)): 23.3 ± 5.4 fmol/g
Ang II/Ang I ([2]; infarcted rats (MI)): 0.72 ± 0.1
Ang-(1 -7) ([2]; infarcted rats (MI)): 3.8 ± 0.6 fmol/g
Ang-(1-7)/Ang II ([2]; infarcted rats (MI)): 0.26 ± 0.02
Ang-(1 -9) ([2]; infarcted rats (MI)): 29 ± 3 fmol/g
Ang-(1-9)/Ang I ([2]; infarcted rats (MI)): 0.89 ± 0.02
Ang I ([2]; sham rats): 30.7 ± 1.0 fmol/g
Ang II ([2]; sham rats): 15.4 ± 3.8 fmol/g
Ang II/Ang I ([2]; sham rats): 0.45 ± 0.05
Ang-(1 -7) ([2]; sham rats): 4.1 ± 0.5 fmol/g
Ang-(1-7)/Ang II ([2]; sham rats): 0.25 ± 0.07
Ang-(1 -9) ([2]; sham rats): 25 ± 5 fmol/g
Ang-(1-9)/Ang I ([2]; sham rats): 0.75 ± 0.03
bradykinin-(1-9) levels ([3]; both in infarcted rats and sham rats): increased
Bk-(1-7) ([3]; infarcted rats (MI)): 1.40 ± 0.17 fmol/g
Bk-(1-7)/Bk-(1-9) ([3]; infarcted rats (MI)): 0.17 ± 0.06
Bk-(1-9) ([3]; infarcted rats (MI)): 7.89 ± 1.22 fmol/g
Bk-(1-7) ([3]; sham rats): 1.48 ± 0.46 fmol/g
Bk-(1-7)/Bk-(1-9) ([3]; sham rats): 0.19 ± 0.04
Bk-(1-9) ([3]; sham rats): 9.53 ± 2.99 fmol/g
